Key:
[1] = test system: mice after alcohol intake and alcohol abstinence; assay: Marble-burying behavior test (MB) in mice after alcohol intake and alcohol abstinence; format: in vivo, C57BL/6J mice; details: clemastine 10 mg/kg orally every day from end of EtOH administration to final day of behavioral tests; EtOH+clemastine group vs EtOH group; FIG. 5(b)
Procedure: (§1) Male C57BL/6J mice at the age of 4 weeks (P28) were used. The mice were accommodated in a plastic cage and maintained at a light-dark cycle of 12 hours (lighting at 8:00 A.M.) with ad libitum access to feed and water.
(§2) Sixteen mice were orally administered EtOH (3.0 g/kg; diluted to 25% with sterile water) intermittently from P28 to P45 for 10 days in total (once a day) according to the schedule of FIG. 1(a). Sixteen control mice were orally administered sterile water in the same amount as that in the mice administered EtOH.
(§3) All the behavioral experiments were performed between 10:00 A.M. and 6:00 P.M. To obtain an indicator of sociality, a social interaction test was conducted. To obtain an indicator of anxiety behavior, a marble-burying behavior test and a novelty suppressed feeding test were conducted. To obtain an indicator of cognitive function, a novel object recognition test was conducted. To reduce influences from previous experiments, the social interaction test, the marble-burying behavior test, the novelty suppressed feeding test, and the novel object recognition test were conducted in the stated order. […]
The marble-burying behavior test was conducted by a method in conformity with a previous report (Alkam T et al., Behav Brain Res. 2013 Feb. 15; 239: 80-9). […] When ⅔ of the surface area of a marble was covered with the sawdust, the marble was counted as being buried. […]

[2] = test system: mice after alcohol intake and alcohol abstinence; assay: Social interaction test (SIT) in mice after alcohol intake and alcohol abstinence; format: in vivo, C57BL/6J mice; details: clemastine 10 mg/kg orally every day from end of EtOH administration to final day of behavioral tests; EtOH+clemastine group vs EtOH group; FIG. 5(b)
Procedure: as §1, §2
All the behavioral experiments were performed between 10:00 A.M. and 6:00 P.M. To obtain an indicator of sociality, a social interaction test was conducted. To obtain an indicator of anxiety behavior, a marble-burying behavior test and a novelty suppressed feeding test were conducted. To obtain an indicator of cognitive function, a novel object recognition test was conducted. […]
The social interaction test was conducted by a method in conformity with a previous report (Mouri A et al., J Neurosci. 2012 Mar. 28; 32(13): 4562-80). […] A time length of a social interaction (e.g., smelling each other, grooming each other, pursuing, mounting, or crawling) was recorded. […]

[3] = test system: myelin sheath marker (MAG) in prefrontal cortexes of mice after alcohol intake and alcohol abstinence; assay: Immunohistochemical staining of prefrontal cortex with myelin sheath marker (MAG), myelin sheath formation enhancing effect; format: in vivo; details: clemastine 10 mg/kg orally every day after end of EtOH administration, ImageJ, FIG. 8(b), 8(c)
Procedure: Mice (4 mice for each group) were administered EtOH in the same manner as in Examples 1 and 2. Control mice (4 mice for each group) were orally administered sterile water in the same amount as that in the mice administered EtOH. […] Frozen slices of prefrontal cortexes and hippocampuses of the mice prepared were heated in a 10 mM citrate buffer solution (pH 6.0) with a microwave oven for 5 minutes. After washed with PBS, the slices were subjected to blocking with 5% normal horse serum (Cat #S-2000, Vector Laboratories, Inc., Burlingame, CA, USA) in PBST for 1 hour. After that, the slices were caused to react with one of primary antibodies at 4° C. overnight. After washed with PBST, the slices were caused to react with a secondary antibody (1:2,000) at room temperature for 3 hours. The primary antibodies used were a mouse anti-CC1 antibody (1:500; Cat #MABF850, Millipore) and a goat anti-PDGFRα antibody (1:200; Cat #AF1062, R&D Systems Inc.)

[4] = test system: mice after alcohol intake and alcohol abstinence; assay: Novelty suppressed feeding test (NSF) in mice after alcohol intake and alcohol abstinence; format: in vivo, C57BL/6J mice; details: clemastine 10 mg/kg orally every day from end of EtOH administration to final day of behavioral tests; EtOH+clemastine group vs EtOH group; FIG. 5(b)
Procedure: as §1, §2, §3
The novelty suppressed feeding test was conducted by a method in conformity with a previous report (Lu Q et al., Behav Brain Res. 2019 Oct. 17; 372: 112053). […] A latency time taken for feed intake was recorded. […]

CN1CCC[C@@H]1CCO[C@](C)(c1ccccc1)c1ccc(Cl)cc1 [clemastine]
significantly remitted: anxiety-like behavior (marble-burying behavior test) [1] | social interaction reduction (social interaction test) [2] | myelin sheath abnormality in the prefrontal cortexes (MAG signal intensity) [3] | anxiety-like behavior (novelty suppressed feeding test) [4]

From patent US20250164463A1, “SCREENING METHOD AND THERAPEUTIC AGENT FOR MENTAL DISORDER” (Fujita Health University, priority 2022, published 2025)
